# Results taken from patent publication US11369655B2, “Healthful supplements” (priority 2015, dated 2022).
# Experiments:
# [1] = cited from earlier work
# [2] = Acute oral toxicity (LD50) in rats; assay type: in vivo, rat
# [3] = target: cannabinoid receptor type 1 (CB1) (Homo sapiens, UniProt P21554); conditions: cited from earlier work
# [4] = target: peripheral cannabinoid receptor type 2 (CB2) (Homo sapiens, UniProt P34972); conditions: cited from earlier work
# [5] = cited from earlier work; remark: listed apart in the source
# [6] = crystalline form at −20° C.; cited from earlier work
# [7] = vapor phase, estimated, cited from earlier work
# cannabinoid receptor type 1 (CB1), sequence (P21554 whole entry, species assumed): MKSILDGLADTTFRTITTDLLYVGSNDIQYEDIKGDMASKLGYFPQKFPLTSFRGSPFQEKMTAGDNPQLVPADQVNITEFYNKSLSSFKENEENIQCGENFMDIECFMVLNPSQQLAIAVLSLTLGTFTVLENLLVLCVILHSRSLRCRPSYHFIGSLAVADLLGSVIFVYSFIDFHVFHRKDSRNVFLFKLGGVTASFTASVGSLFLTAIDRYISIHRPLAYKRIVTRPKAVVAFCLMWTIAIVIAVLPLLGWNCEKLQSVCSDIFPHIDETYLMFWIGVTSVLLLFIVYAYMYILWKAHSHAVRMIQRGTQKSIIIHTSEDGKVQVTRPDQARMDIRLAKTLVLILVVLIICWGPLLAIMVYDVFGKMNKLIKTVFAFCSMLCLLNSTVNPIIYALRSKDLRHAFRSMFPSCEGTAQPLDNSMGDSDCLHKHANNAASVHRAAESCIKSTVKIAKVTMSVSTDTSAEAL
# peripheral cannabinoid receptor type 2 (CB2), sequence (P34972 whole entry, species assumed): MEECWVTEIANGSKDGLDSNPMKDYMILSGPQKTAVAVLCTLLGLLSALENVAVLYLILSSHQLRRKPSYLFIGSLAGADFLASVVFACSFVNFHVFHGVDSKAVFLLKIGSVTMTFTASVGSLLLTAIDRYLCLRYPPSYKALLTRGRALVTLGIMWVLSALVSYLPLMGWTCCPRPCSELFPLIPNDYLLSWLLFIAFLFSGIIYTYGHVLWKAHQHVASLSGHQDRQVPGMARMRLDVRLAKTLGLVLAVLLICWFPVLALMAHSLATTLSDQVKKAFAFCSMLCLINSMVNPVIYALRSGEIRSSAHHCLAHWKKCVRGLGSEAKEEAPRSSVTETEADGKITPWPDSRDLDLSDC
smiles,measurement,setting,value
CCO [ethyl (grain) alcohol],acute oral toxicity (LD50) in rats,[1]; rat,about 7060 mg/kg
"OCC(O)CO [Vegetable glycerin, glycerol]",LD50 oral rat dosage converted per pound,[2]; conversion of the rat oral LD50,approximately 5.7 grams per pound of body weight
same,LD50 oral rat dosage converted for a 180 pound male,[2]; for a 180 pound male,36 ounces
same,LD50 oral rat dosage,[1]; MSDS,"12,600 milligrams per kilogram of body weight"
"CCCCCC(C)(C)c1ccc([C@H]2CCC[C@@H](O)C2)c(O)c1 (relative stereo) [cp 47,497-C6-homolog, cis-5-(1,1 dimethylhexyl)-2-(3-hydroxycyclohexyl)-phenol]",affinity for CB1,[3],has affinity
same,affinity for CB2,[4],has affinity
same,solubility in DMF,[5]; DMF,approximately 10 mg/ml
same,solubility in DMSO,[5]; DMSO,~15 mg/mL
same,solubility in aqueous solutions,[5]; aqueous solutions,sparingly soluble
same,solubility in ethanol,[5]; ethanol,approximately 10 mg/ml
same,solubility in methanol,[5]; methanol,approximately 12.5 mg/ml
same,long term storage stability,[6],stable for at least two years
"C=CC(=C)CCC=C(C)C [myrcene, beta-myrcene]","half-life in air, reaction with nitrate radicals",[7]; nitrate radicals,4 min
same,"half-life in air, reaction with ozone",[7]; ozone,34 min
same,"half-life in air, reaction with hydroxyl radicals",[7]; photochemically-produced hydroxyl radicals,1.8 h
